The values below come from patent US12258328B2, “6-membered heteroaryl-containing aminopyridine compounds as EGFR inhibitors” (YUHAN CORPORATION, priority 2021, dated 2025).

pIC50: −log10 of the molar value. Like-named read-outs stand apart in the source and are kept apart here.

The target in test [1] is EGFR L858R/T790M/C797S (Homo sapiens, UniProt P00533, C797S/L858R/T790M). As to the kind of experiment: Biochemical EGFR kinase assay (Lance Ultra TR-FRET), triple mutant L858R/T790M/C797S. The essentials: (§1)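 Kinase activity is measured by TR-FRET phosphopeptide detection. Compounds span 0.003 μM to 10 μM; the 1 h reaction at room temperature is quenched with EDTA, then labelled antibody (2 nM) is incubated 60 min before reading.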

For test [2], the target named is EGFR wildtype (Homo sapiens, UniProt P00533). Description: Biochemical EGFR kinase assay (Lance Ultra TR-FRET), wildtype. The essentials:
as §1

For test [3], the target named is EGFR L858R/C797S (Homo sapiens, UniProt P00533, C797S/L858R). Description: Biochemical EGFR kinase assay (Lance Ultra TR-FRET), double mutant L858R/C797S. The procedure, abridged: as §1
Test [4] deals with EGFR del19/T790M/C797S (Homo sapiens, UniProt P00533, C797S/DEL746-750/T790M). As to the kind of experiment: Biochemical EGFR kinase assay (Lance Ultra TR-FRET), triple mutant del19/T790M/C797S. The procedure, abridged:
as §1

Test [5] concerns the target EGFR del19/C797S (Homo sapiens, UniProt P00533, C797S/DEL746-750). As to the kind of experiment: Biochemical EGFR kinase assay (Lance Ultra TR-FRET), double mutant del19/C797S. The essentials: as §1
Where [6] appears, read: ATP at Km, read-out: IC50 L858R/T790M/C797S, Km ATP.
Where [7] appears, read: IC50 L858R/T790M/C797S, 100 μM ATP.
[8] abbreviates: ATP at Km, read-out: IC50 WT, Km ATP.
Where [9] appears, read: ATP at Km, read-out: IC50 L858R/C797S, Km ATP.
Setting [10] is: ATP at Km, read-out: IC50 del19/T790M/C797S, Km ATP.
[11] abbreviates: IC50 del19/T790M/C797S, 100 μM ATP.
Setting [12] is: ATP at Km, read-out: IC50 del19/C797S, Km ATP.
The mark [13] stands for this setting: IC50 L858R/T790M/C797S (nM) 100 μM ATP, 100 μM ATP.
Where [14] appears, read: Km ATP, read-out: IC50 L858R/T790M/C797S (nM) Km ATP.
[15] abbreviates: IC50 WT (nM) 100 μM ATP, 100 μM ATP.
[16] abbreviates: Km ATP, read-out: IC50 WT (nM) Km ATP.
The mark [17] stands for this setting: IC50 L858R/C797S (nM) 100 μM ATP, 100 μM ATP.
[18] abbreviates: Km ATP, read-out: IC50 L858R/C797S (nM) Km ATP.
The mark [19] stands for this setting: IC50 del19/T790M/C797S (nM) 100 μM ATP, 100 μM ATP.
Setting [20] is: Km ATP, read-out: IC50 del19/T790M/C797S (nM) Km ATP.
Setting [21] is: IC50 del19/C797S (nM) 100 μM ATP, 100 μM ATP.
Setting [22] is: Km ATP, read-out: IC50 del19/C797S (nM) Km ATP.

Chain of EGFR L858R/C797S (P00533 25-1210 C797S/L858R): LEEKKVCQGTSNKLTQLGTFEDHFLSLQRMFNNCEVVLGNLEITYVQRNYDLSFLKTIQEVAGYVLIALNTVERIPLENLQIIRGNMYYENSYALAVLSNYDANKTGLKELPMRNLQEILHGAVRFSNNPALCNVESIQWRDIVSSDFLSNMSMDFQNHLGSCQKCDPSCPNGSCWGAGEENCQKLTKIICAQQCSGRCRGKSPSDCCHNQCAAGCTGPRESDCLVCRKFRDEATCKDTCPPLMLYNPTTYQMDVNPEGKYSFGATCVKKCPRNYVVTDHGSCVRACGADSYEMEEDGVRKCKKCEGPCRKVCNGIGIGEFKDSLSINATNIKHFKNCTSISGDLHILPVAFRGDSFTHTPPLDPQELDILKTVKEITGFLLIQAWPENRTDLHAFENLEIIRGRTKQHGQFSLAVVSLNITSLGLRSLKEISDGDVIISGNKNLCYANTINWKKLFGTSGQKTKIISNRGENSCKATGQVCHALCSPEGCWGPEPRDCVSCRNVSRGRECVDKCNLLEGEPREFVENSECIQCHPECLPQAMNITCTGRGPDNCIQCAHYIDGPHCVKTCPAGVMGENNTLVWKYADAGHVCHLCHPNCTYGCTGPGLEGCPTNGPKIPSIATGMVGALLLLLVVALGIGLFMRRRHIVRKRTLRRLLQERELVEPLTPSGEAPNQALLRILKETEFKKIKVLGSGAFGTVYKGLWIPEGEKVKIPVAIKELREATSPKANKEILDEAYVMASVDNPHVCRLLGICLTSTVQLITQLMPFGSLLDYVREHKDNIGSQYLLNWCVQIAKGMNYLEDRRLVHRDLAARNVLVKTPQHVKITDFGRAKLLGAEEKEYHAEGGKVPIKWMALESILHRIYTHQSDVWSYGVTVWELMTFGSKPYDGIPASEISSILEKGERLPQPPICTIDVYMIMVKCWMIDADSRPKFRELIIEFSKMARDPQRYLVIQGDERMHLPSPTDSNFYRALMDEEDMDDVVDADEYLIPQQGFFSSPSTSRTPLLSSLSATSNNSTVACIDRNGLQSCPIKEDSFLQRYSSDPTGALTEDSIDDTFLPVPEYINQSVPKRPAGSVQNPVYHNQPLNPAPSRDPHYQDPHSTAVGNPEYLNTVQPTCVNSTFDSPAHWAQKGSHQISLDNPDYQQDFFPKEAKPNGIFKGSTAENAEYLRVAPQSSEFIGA
Chain of EGFR L858R/T790M/C797S (P00533 25-1210 T790M/C797S/L858R): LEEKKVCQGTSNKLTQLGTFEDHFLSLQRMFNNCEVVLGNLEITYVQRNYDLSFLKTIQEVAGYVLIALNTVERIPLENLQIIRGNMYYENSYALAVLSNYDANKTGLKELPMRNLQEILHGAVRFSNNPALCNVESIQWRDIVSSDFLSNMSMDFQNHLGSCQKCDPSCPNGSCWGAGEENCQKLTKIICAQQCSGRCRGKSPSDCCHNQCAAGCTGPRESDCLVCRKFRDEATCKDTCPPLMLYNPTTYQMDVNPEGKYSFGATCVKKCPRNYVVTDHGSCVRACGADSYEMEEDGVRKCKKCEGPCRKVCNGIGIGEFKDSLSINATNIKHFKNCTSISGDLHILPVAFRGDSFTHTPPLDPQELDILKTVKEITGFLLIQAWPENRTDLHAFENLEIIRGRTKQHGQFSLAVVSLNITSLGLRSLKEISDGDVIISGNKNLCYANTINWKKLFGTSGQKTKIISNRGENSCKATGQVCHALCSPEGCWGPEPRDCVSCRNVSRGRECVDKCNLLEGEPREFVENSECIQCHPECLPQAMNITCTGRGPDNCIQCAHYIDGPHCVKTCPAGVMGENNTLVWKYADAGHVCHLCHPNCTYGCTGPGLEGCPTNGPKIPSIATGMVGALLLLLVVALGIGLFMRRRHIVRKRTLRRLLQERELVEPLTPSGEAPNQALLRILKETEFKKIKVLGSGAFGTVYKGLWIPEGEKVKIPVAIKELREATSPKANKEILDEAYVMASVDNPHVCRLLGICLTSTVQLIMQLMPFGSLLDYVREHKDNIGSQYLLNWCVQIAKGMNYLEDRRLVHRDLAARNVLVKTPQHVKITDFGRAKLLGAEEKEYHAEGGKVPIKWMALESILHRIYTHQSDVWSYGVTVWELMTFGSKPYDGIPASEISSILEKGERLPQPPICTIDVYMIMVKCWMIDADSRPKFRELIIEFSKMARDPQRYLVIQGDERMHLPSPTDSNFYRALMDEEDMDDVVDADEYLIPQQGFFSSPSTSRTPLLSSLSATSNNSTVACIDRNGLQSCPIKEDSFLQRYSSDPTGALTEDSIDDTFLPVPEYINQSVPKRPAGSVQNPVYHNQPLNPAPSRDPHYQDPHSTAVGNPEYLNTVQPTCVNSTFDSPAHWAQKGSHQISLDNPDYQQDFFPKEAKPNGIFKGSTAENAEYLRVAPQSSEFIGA
Chain of EGFR wildtype (P00533 25-1210): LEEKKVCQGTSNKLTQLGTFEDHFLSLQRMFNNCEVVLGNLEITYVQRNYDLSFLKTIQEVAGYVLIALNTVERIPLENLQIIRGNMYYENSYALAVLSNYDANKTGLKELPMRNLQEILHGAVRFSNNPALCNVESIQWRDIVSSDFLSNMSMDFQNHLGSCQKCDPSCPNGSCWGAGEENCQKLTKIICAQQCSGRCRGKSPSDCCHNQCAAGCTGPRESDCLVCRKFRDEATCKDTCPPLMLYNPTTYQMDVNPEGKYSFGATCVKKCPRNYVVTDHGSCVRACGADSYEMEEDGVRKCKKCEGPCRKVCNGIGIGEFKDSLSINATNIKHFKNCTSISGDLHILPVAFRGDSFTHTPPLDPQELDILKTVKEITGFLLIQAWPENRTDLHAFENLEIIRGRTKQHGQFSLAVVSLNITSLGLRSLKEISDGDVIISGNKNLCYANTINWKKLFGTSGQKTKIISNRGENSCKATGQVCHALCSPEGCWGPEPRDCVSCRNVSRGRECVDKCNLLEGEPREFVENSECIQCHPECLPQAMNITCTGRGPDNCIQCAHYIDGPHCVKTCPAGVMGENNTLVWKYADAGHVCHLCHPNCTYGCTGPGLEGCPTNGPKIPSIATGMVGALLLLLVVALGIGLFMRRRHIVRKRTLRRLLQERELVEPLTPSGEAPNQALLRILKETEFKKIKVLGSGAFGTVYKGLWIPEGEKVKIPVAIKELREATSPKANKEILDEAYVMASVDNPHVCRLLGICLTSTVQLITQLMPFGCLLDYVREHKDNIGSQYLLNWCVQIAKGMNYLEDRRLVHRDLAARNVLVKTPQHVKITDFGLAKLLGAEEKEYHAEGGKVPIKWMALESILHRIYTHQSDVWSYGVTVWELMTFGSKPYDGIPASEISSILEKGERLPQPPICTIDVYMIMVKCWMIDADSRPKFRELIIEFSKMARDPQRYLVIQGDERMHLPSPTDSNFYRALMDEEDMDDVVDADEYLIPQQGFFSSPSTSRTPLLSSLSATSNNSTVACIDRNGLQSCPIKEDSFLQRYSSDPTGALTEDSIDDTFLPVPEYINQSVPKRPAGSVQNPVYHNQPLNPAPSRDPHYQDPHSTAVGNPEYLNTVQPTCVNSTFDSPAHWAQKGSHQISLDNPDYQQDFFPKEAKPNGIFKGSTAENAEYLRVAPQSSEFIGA
Chain of EGFR del19/T790M/C797S (P00533 with tags, fused parts or gaps DEL746-750/T790M/C797S): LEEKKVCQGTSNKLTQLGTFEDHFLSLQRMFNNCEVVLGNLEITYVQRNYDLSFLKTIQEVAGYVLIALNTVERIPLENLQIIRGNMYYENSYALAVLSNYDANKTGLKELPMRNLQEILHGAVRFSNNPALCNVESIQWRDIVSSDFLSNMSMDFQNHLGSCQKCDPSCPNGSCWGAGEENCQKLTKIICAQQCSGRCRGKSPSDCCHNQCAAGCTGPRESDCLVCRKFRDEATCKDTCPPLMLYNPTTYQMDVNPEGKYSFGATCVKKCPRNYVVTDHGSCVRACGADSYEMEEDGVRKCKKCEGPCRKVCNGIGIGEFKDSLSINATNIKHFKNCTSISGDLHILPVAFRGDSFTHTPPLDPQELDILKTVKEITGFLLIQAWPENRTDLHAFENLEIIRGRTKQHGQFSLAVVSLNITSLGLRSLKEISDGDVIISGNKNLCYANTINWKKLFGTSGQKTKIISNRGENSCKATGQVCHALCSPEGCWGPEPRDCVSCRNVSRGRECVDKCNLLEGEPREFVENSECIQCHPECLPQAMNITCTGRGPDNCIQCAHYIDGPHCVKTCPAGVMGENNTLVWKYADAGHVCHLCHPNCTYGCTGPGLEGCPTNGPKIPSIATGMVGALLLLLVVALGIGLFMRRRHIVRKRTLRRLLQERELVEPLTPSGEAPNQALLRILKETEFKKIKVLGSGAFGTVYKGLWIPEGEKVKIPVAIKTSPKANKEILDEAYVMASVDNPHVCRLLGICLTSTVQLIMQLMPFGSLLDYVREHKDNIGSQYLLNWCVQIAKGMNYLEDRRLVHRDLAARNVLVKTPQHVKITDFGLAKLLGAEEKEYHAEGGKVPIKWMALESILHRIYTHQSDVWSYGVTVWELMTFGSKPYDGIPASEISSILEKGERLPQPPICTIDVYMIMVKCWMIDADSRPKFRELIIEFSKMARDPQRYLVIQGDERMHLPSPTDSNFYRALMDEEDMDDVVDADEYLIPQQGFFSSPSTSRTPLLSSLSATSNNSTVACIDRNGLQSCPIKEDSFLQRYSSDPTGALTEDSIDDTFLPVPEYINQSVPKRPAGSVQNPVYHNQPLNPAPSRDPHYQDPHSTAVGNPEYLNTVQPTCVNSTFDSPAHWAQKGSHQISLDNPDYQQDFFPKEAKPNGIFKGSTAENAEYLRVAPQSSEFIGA

For `O=S(=O)(C1CC1)n1cc(-c2nccc(Nc3cc(N[C@H]4CC[C@@H](NCC(F)F)CC4)c(-c4cccc(F)n4)cn3)n2)cn1` [Example 275, N^6′-(2-(1-(Cyclopropylsulfonyl)-1H-pyrazol-4-yl)pyrimidin-4-yl)-N^4′-((1s,4s)-4-((2,2-difluoroethyl)amino)cyclohexyl)-6-fluoro-[2,3′-bipyridine]-4′,6′-diamine], the pIC50 in test [1] (setting [6]) was 9.15; in test [1] (setting [7]), 8.92; in test [2] (setting [8]) it was 7.73; in test [2] (IC50 WT, 100 μM ATP), less than 5.00; in test [3] (setting [9]), 8.39; in test [3] (IC50 L858R/C797S, 100 μM ATP), 7.94. The pIC50 in test [4] (setting [10]) is 9.05; in test [4] (setting [11]), 8.96; in test [5] (setting [12]) it was 8.60; in test [5] (IC50 del19/C797S, 100 μM ATP), 8.59.
Take `CC(C)(O)[C@H]1CC[C@@H](Nc2cc(Nc3ccnc(-c4cnn(S(=O)(=O)C5CC5)c4)n3)ncc2-c2ccc(S(C)(=O)=O)cn2)CC1` [Example 160, 2-((1s,4s)-4-((6′-((2-(1-(Cyclopropylsulfonyl)-1H-pyrazol-4-yl)pyrimidin-4-yl)amino)-5-(methylsulfonyl)-[2,3′-bipyridin]-4′-yl)amino)cyclohexyl)propan-2-ol]: the pIC50 is 9.70 in test [1] (setting [6]); 9.15 in test [1] (setting [7]); 8.29 in test [2] (setting [8]); less than 5.00 in test [2] (IC50 WT, 100 μM ATP); 8.52 in test [3] (setting [9]); 7.82 in test [3] (IC50 L858R/C797S, 100 μM ATP). Besides, the pIC50 in test [4] (setting [10]) is 9.30; in test [4] (setting [11]), 9.10; in test [5] (setting [12]), 9.30; in test [5] (IC50 del19/C797S, 100 μM ATP), 8.89.
For the compound `C[C@]1(O)CC[C@@H](Nc2cc(Nc3ccnc(-c4cnn(S(=O)(=O)C5CC5)c4)n3)ncc2-c2cnc(CO)cn2)CC1` [Example 60, (1s,4s)-4-((2-((2-(1-(Cyclopropylsulfonyl)-1H-pyrazol-4-yl)pyrimidin-4-yl)amino)-5-(5-(hydroxymethyl)pyrazin-2-yl)pyridin-4-yl)amino)-1-methylcyclohexan-1-ol], the IC50 in test [1] (setting [13]) is 0.4 nM; in test [1] (setting [14]) it was 0.2 nM; in test [2] (setting [15]) it was more than 10000 nM; in test [2] (setting [16]), 6.8 nM; in test [3] (setting [17]) it was 4.2 nM; in test [3] (setting [18]), 0.4 nM. The IC50 in test [4] (setting [19]) amounted to 0.2 nM; in test [4] (setting [20]) it was 0.2 nM; in test [5] (setting [21]) it was 0.5 nM; in test [5] (setting [22]), 0.4 nM.
Turning to `CC(C)(O)c1ccc(-c2cnc(Nc3ccnc(-c4cnn(S(=O)(=O)C5CC5)c4)n3)cc2NC2CCN(CC(F)F)CC2)nc1` [Example 178, 2-(6′-((2-(1-(Cyclopropylsulfonyl)-1H-pyrazol-4-yl)pyrimidin-4-yl)amino)-4′-((1-(2,2-difluoroethyl)piperidin-4-yl)amino)-[2,3′-bipyridin]-5-yl)propan-2-ol], the pIC50 in test [1] (setting [6]) is 9.00; in test [2] (setting [8]), 7.02; in test [3] (setting [9]) it was 8.33; in test [4] (setting [10]), 9.15; in test [5] (setting [12]), 8.59.
For the compound `CN1CCN(C(=O)c2ccc(-c3cnc(Nc4ccnc(-c5cnn(S(=O)(=O)C6CC6)c5)n4)cc3N[C@H]3CC[C@@H](CN(C)C)CC3)nc2)CC1` [Example 204, (6′-((2-(1-(Cyclopropylsulfonyl)-1H-pyrazol-4-yl)pyrimidin-4-yl)amino)-4′-(((1s,4s)-4-((dimethylamino)methyl)cyclohexyl)amino)-[2,3′-bipyridin]-5-yl)(4-methylpiperazin-1-yl)methanone], the pIC50 in test [1] (setting [6]) is 10.00; in test [1] (setting [7]), 10.00; in test [2] (setting [8]), 9.40; in test [2] (IC50 WT, 100 μM ATP) it was 6.91; in test [3] (setting [9]) it was 10.00; in test [3] (IC50 L858R/C797S, 100 μM ATP), 9.00. The pIC50 is 10.00 in test [4] (setting [10]); 10.00 in test [4] (setting [11]); 9.70 in test [5] (setting [12]); 9.70 in test [5] (IC50 del19/C797S, 100 μM ATP).
Consider `CN(C)c1cnc(-c2cnc(Nc3ccnc(-c4cnn(S(=O)(=O)C5CC5)c4)n3)cc2N[C@H]2CC[C@@](C)(O)CC2)nc1` [Example 39, (1s,4s)-4-((2-((2-(1-(Cyclopropylsulfonyl)-1H-pyrazol-4-yl)pyrimidin-4-yl)amino)-5-(5-(dimethylamino)pyrimidin-2-yl)pyridin-4-yl)amino)-1-methylcyclohexan-1-ol], for which the IC50 in test [1] (setting [13]) is 0.7 nM; in test [1] (setting [14]), 0.4 nM; in test [2] (setting [15]), more than 10000 nM; in test [2] (setting [16]), 26 nM; in test [3] (setting [17]), 74.8 nM; in test [3] (setting [18]), 8.7 nM. Also, the IC50 was 2.1 nM in test [4] (setting [19]), 1 nM in test [4] (setting [20]) and 2.5 nM in test [5] (setting [22]).
Consider `CC(C)(F)c1ccc(-c2cnc(Nc3ccnc(-c4cnn(S(=O)(=O)C5CC5)c4)n3)cc2NC2CCC(F)CC2)nc1` (stereo not drawn) [Example 239, N^6′-(2-(1-(Cyclopropylsulfonyl)-1H-pyrazol-4-yl)pyrimidin-4-yl)-N^4′-(4-fluorocyclohexyl)-5-(2-fluoropropan-2-yl)-[2,3′-bipyridine]-4′,6′-diamine], for which the pIC50 in test [1] (setting [6]) is 8.41; in test [2] (setting [8]) it was 6.67; in test [3] (setting [9]) it was 7.50; in test [4] (setting [10]), 7.82; in test [5] (setting [12]), 7.14.
For the compound `CN(C)CCOc1ccc(-c2cnc(Nc3ccnc(-c4cnn(S(=O)(=O)C5CC5)c4)n3)cc2N[C@H]2CC[C@@H](CO)CC2)nc1` [Example 209, ((1s,4s)-4-((6′-((2-(1-(Cyclopropylsulfonyl)-1H-pyrazol-4-yl)pyrimidin-4-yl)amino)-5-(2-(dimethylamino)ethoxy)-[2,3′-bipyridin]-4′-yl)amino)cyclohexyl)methanol], the pIC50 in test [1] (setting [6]) is 10.00; in test [1] (setting [7]), 9.70; in test [2] (setting [8]), 9.70; in test [2] (IC50 WT, 100 μM ATP), 7.00; in test [3] (setting [9]), 10.00; in test [3] (IC50 L858R/C797S, 100 μM ATP) it was 9.22. Besides, the pIC50 in test [4] (setting [10]) was 10.00; in test [4] (setting [11]) it was 9.70; in test [5] (setting [12]), 10.00; in test [5] (IC50 del19/C797S, 100 μM ATP), 9.52.
With `O=S(=O)(C1CC1)n1cc(-c2nccc(Nc3cc(N[C@H]4CC[C@@H](CO)CC4)c(-c4cc(C(F)F)ccn4)cn3)n2)cn1` [Example 77, ((1s,4s)-4-((6′-((2-(1-(Cyclopropylsulfonyl)-1H-pyrazol-4-yl)pyrimidin-4-yl)amino)-4-(difluoromethyl)-[2,3′-bipyridin]-4′-yl)amino)cyclohexyl)methanol], the IC50 in test [1] (setting [13]) was 1.4 nM; in test [1] (setting [14]), 1.1 nM; in test [2] (setting [15]), 1560 nM; in test [2] (setting [16]), 4 nM; in test [3] (setting [17]) it was 13 nM; in test [3] (setting [18]) it was 4.1 nM. The IC50 in test [4] (setting [19]) stood at 1.7 nM; in test [4] (setting [20]), 2.1 nM; in test [5] (setting [21]) it was 2.3 nM; in test [5] (setting [22]), 2.2 nM.
As to `CN(C)CCOc1ccc(-c2cnc(Nc3ccnc(-c4cnn(S(=O)(=O)C5CC5)c4)n3)cc2N[C@H]2CC[C@@](C)(O)CC2)nc1` [Example 208, (1s,4s)-4-((6′-((2-(1-(Cyclopropylsulfonyl)-1H-pyrazol-4-yl)pyrimidin-4-yl)amino)-5-(2-(dimethylamino)ethoxy)-[2,3′-bipyridin]-4′-yl)amino)-1-methylcyclohexan-1-ol], the pIC50 was 10.00 in test [1] (setting [6]); 9.70 in test [1] (setting [7]); 9.52 in test [2] (setting [8]); 6.62 in test [2] (IC50 WT, 100 μM ATP); 10.00 in test [3] (setting [9]); 9.22 in test [3] (IC50 L858R/C797S, 100 μM ATP). The pIC50 was 10.00 in test [4] (setting [10]); 9.70 in test [4] (setting [11]); 9.70 in test [5] (setting [12]); 9.52 in test [5] (IC50 del19/C797S, 100 μM ATP).
For the compound `C[C@]1(O)CC[C@@H](Nc2cc(Nc3ccnc(-c4cnn(S(=O)(=O)C5CC5)c4)n3)ncc2-c2ncccc2OCC(F)(F)F)CC1` [Example 333, (1s,4s)-4-((6′-((2-(1-(Cyclopropylsulfonyl)-1H-pyrazol-4-yl)pyrimidin-4-yl)amino)-3-(2,2,2-trifluoroethoxy)-[2,3′-bipyridin]-4′-yl)amino)-1-methylcyclohexan-1-ol], the IC50 in test [1] (setting [14]) turned out to be 2.6 nM; in test [2] (setting [16]), 117 nM; in test [3] (setting [18]), 795 nM; in test [4] (setting [20]), 4.1 nM; in test [5] (setting [22]), 460 nM.
On to `CN1CCC(Oc2ccc(-c3cnc(Nc4ccnc(-c5cnn(S(=O)(=O)C6CC6)c5)n4)cc3N[C@H]3CC[C@@](C)(O)CC3)nc2)CC1` [Example 250, (1s,4s)-4-((6′-((2-(1-(Cyclopropylsulfonyl)-1H-pyrazol-4-yl)pyrimidin-4-yl)amino)-5-((1-methylpiperidin-4-yl)oxy)-[2,3′-bipyridin]-4′-yl)amino)-1-methylcyclohexan-1-ol], for which the pIC50 was 9.70 in test [1] (setting [6]); 9.52 in test [2] (setting [8]); 9.40 in test [3] (setting [9]); 9.40 in test [4] (setting [10]); 9.40 in test [5] (setting [12]).
